Patent US7858635B2 (priority 2005, dated 2010)
Where two headings read alike, the source gives them in different places.

Assays:
M1 muscarinic receptor = biological target: T1, M1 muscarinic receptor (Homo sapiens, UniProt P11229); assay: Functional mobilization of intracellular calcium (FLIPR, Fluo-3), M1-CHO cells; assay type: cell-based; conditions: for Emax: 100% efficacy is the maximum response obtained with the Carbachol control, read-out: M1 Efficacy
T1 construct: expressed in transfected cells; host or cells: CHO cells (M1-CHO, under zeocin and G418 selection)
T1 sequence (P11229 1-460): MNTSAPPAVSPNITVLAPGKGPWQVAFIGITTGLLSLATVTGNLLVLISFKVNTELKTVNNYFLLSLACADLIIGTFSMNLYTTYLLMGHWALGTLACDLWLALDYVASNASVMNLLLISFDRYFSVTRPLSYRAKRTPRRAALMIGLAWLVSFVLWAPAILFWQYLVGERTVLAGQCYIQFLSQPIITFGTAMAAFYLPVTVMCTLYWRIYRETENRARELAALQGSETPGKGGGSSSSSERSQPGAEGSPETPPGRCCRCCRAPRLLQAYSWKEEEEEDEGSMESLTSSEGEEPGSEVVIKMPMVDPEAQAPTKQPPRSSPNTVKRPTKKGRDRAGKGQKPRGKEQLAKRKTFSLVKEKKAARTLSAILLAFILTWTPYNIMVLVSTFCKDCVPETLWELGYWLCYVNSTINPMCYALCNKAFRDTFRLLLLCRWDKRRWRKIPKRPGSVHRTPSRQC
Procedure, shortened: (§1)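 Intracellular calcium was tracked by fluorescence (488/540 nm) over 60 sec after compound addition to dye-loaded CHO cells expressing the receptor. Inhibitory activity used a 15 min pre-incubation before carbachol at the subtype EC80.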

M4 muscarinic receptor = biological target: T2, M4 muscarinic receptor (Homo sapiens, UniProt P08173); assay: Functional mobilization of intracellular calcium (FLIPR, Fluo-3), M4-CHO cells; assay type: cell-based; conditions: for Emax: 100% efficacy is the maximum response obtained with the Carbachol control, read-out: M4 Efficacy
T2 construct: expressed in transfected cells; host or cells: CHO cells (M4-CHO, under puromycin, zeocin and blasticidin selection)
T2 sequence (P08173 1-479): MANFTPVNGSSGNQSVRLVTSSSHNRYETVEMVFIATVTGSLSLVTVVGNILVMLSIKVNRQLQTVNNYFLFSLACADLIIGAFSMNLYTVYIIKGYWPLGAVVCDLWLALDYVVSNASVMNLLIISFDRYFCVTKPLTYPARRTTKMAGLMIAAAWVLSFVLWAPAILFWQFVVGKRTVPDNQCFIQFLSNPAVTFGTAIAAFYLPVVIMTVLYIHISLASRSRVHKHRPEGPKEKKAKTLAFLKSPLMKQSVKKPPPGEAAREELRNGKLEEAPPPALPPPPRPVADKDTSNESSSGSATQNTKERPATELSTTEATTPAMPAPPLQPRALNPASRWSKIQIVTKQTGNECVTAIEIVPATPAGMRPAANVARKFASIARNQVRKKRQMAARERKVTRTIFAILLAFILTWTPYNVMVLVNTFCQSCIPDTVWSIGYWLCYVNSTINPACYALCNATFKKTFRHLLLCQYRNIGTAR
Procedure, shortened: as §1

[1] = compound nos. 1-454, M1-CHO cells, calcium mobilization
[2] = compound nos. 1-454, M4-CHO cells, calcium mobilization

Row | Compound | Emax (M1 muscarinic receptor; compound nos. 1-454) [%] | M1 Activity (M1 muscarinic receptor; [1]) | Emax (M4 muscarinic receptor; compound nos. 1-454) [%] | M4 Activity (M4 muscarinic receptor; [2]) | Emax (M1 muscarinic receptor; compound nos. 455-509) [%] | M1 Activity (M1 muscarinic receptor; compounds 455-509) | Emax (M4 muscarinic receptor; compound nos. 455-509) [%] | M4 Activity (M4 muscarinic receptor; compounds 455-509) | M1 Activity (M1 muscarinic receptor; compound nos. 1-454) | M4 Activity (M4 muscarinic receptor; compound nos. 1-454)
1 | CCOC(=O)N1CCC(CN2CCC3(CC2)C[C@H](NC(C)=O)c2ccccc23)CC1 [compound 250] | 65 to 85 | ++ (activity was measured to be between 0.7 μM and 3.0 μM) | 55 to 70 | + (activity was measured to be greater than or equal to 4.0 μM) |  |  |  |  |  | 
2 | CCOC(=O)N1C2CCC1CC(N1CCC3(CC1)CNc1ccccc13)C2 (stereo not shown) [compound 153] | > 85 | +++ (activity was measured to be less than or equal to 0.7 μM) | > 70 | +++ (activity was measured to be less than or equal to 0.1 μM) |  |  |  |  |  | 
3 | CCOC(=O)N1CCC(N2CCC3(CC2)CN(C(C)=O)c2ccc(-c4ccc(C#N)cc4)cc23)CC1 [compound 253] | 65 to 85 | ++ (activity was measured to be between 0.7 μM and 3.0 μM) | 55 to 70 | + (activity was measured to be greater than or equal to 4.0 μM) |  |  |  |  |  | 
4 | CC(=O)N[C@H]1CC2(CCN(C3CCC(c4ccccc4)CC3)CC2)c2ccccc21 (stereo partly shown) [compound 273] | > 85 | +++ (activity was measured to be less than or equal to 0.7 μM) | > 70 | ++ (activity was measured to be between 0.1 μM and 4.0 μM) |  |  |  |  |  | 
5 | CCCOC(=O)N1CCCC(N2CCC3(CC2)CN(C(C)=O)c2ccc(F)cc23)CC1 (stereo not shown) [compound 266] | < 65 | + (activity was measured to be greater than or equal to 3.0 μM) | < 55 | + (activity was measured to be greater than or equal to 4.0 μM) |  |  |  |  |  | 
6 | Cc1nsc(N2C3CCC2CC(N2CCC4(CCN(C(=O)N(C)C)c5ccccc54)CC2)C3)n1 (stereo not shown) [compound 501] |  |  |  |  | > 100 | +++ (activity was measured to be less than or equal to 2.0 μM) | 25 to 100 | ++ (activity was measured to be between 2.0 μM and 5.0 μM) |  | 
7 | CN(C)C(=O)N1CC2(CCN(C3CCN(C(=O)O[C@H]4CCOC4)CC3)CC2)c2cc(F)ccc21 [compound 120] | < 65 | ++ (activity was measured to be between 0.7 μM and 3.0 μM) | < 55 | + (activity was measured to be greater than or equal to 4.0 μM) |  |  |  |  |  | 
8 | CC(=O)N1CC2(CCN(CC3=CCCCC3)CC2)c2cc(F)ccc21 [compound 163] | 65 to 85 | +++ (activity was measured to be less than or equal to 0.7 μM) | > 70 | ++ (activity was measured to be between 0.1 μM and 4.0 μM) |  |  |  |  |  | 
9 | CC(=O)N1CC2(CCN(CC3CCN(C(=O)O[C@@H]4CCOC4)CC3)CC2)c2cc(C)ccc21 [compound 403] | 65 to 85 |  | < 55 |  |  |  |  |  | +++ (activity was measured to be less than or equal to 0.7 μM) | + (activity was measured to be greater than or equal to 4.0 μM)
10 | CC(=O)N[C@H]1CC2(CCN(C3CC4CCC(C4)C3)CC2)c2ccccc21 (stereo partly shown) [compound 337] | < 65 | + (activity was measured to be greater than or equal to 3.0 μM) | < 55 | + (activity was measured to be greater than or equal to 4.0 μM) |  |  |  |  |  | 
11 | Cc1ccc2c(c1)C1(CCN(C3C4CCCC3CCC4)CC1)CN2 (stereo not shown) [compound 72] | 65 to 85 | +++ (activity was measured to be less than or equal to 0.7 μM) | 55 to 70 | ++ (activity was measured to be between 0.1 μM and 4.0 μM) |  |  |  |  |  | 
12 | Fc1ccc2c(c1)C1(CCN(CC3CCCCC3)CC1)CN2 [compound 239] | 65 to 85 | + (activity was measured to be greater than or equal to 3.0 μM) | 55 to 70 | + (activity was measured to be greater than or equal to 4.0 μM) |  |  |  |  |  | 
13 | CN(C)C(=O)N1CC2(CCN(C3CCN(c4ccccc4F)CC3)CC2)c2cc(F)ccc21 [compound 437] | 65 to 85 |  | < 55 |  |  |  |  |  | ++ (activity was measured to be between 0.7 μM and 3.0 μM) | ++ (activity was measured to be between 0.1 μM and 4.0 μM)
14 | Cc1cncc(N2CCC(N3CCC4(CC3)CN(C(=O)N(C)C)c3ccccc34)CC2)n1 [compound 478] |  |  |  |  | > 100 | +++ (activity was measured to be less than or equal to 2.0 μM) | 25 to 100 | ++ (activity was measured to be between 2.0 μM and 5.0 μM) |  | 
15 | CC(=O)N1CC2(CCN(C3CC4CCC(C4)C3)CC2)c2cc(F)ccc21 (stereo not shown) [compound 35] | > 85 | +++ (activity was measured to be less than or equal to 0.7 μM) | > 70 | ++ (activity was measured to be between 0.1 μM and 4.0 μM) |  |  |  |  |  | 
16 | CCc1nsc(N2CCC(N3CCC4(CC3)C[C@H](N(CCOC)C(C)=O)c3ccccc34)CC2)n1 [compound 505] |  |  |  |  | > 100 | +++ (activity was measured to be less than or equal to 2.0 μM) | 25 to 100 | ++ (activity was measured to be between 2.0 μM and 5.0 μM) |  | 
17 | CCOC(=O)N1C2CCC1CC(N1CCC3(CC1)COc1ccc(F)cc13)C2 (stereo not shown) [compound 42] | > 85 | +++ (activity was measured to be less than or equal to 0.7 μM) | > 70 | ++ (activity was measured to be between 0.1 μM and 4.0 μM) |  |  |  |  |  | 
18 | COc1ccccc1N1CCC(N2CCC3(CC2)CN(C(=O)N(C)C)c2ccc(F)cc23)CC1 [compound 440] | 65 to 85 |  | 55 to 70 |  |  |  |  |  | ++ (activity was measured to be between 0.7 μM and 3.0 μM) | ++ (activity was measured to be between 0.1 μM and 4.0 μM)
19 | CCOC(=O)N1C2CCC1CC(N1CCC3(CC1)CN(C(=O)c1snnc1C)c1ccc(F)cc13)C2 (stereo not shown) [compound 59] | < 65 | +++ (activity was measured to be less than or equal to 0.7 μM) | 55 to 70 | ++ (activity was measured to be between 0.1 μM and 4.0 μM) |  |  |  |  |  | 
20 | CCc1cnc(N2CCC(N3CCC4(CC3)CN(C(=O)N(C)C)c3ccccc34)CC2)cn1 [compound 466] |  |  |  |  | > 100 | ++ (activity was measured to be between 2.0 μM and 5.0 μM) | 25 to 100 | ++ (activity was measured to be between 2.0 μM and 5.0 μM) |  | 
21 | Cc1ccc2c(c1)C1(CCN(C3CC4CCC3C4)CC1)CN2C(=O)C1CC1 (stereo not shown) [compound 51] | 65 to 85 | +++ (activity was measured to be less than or equal to 0.7 μM) | 55 to 70 | ++ (activity was measured to be between 0.1 μM and 4.0 μM) |  |  |  |  |  | 
22 | Clc1ccc2c(c1)C1(CCN(C3CCCCCC3)CC1)CN2 [compound 333] | < 65 | + (activity was measured to be greater than or equal to 3.0 μM) | < 55 | + (activity was measured to be greater than or equal to 4.0 μM) |  |  |  |  |  | 
